From ChEMBL document CHEMBL3639137, “3H-imidazo [4, 5-C] pyridine-6-carboxamides as anti-inflammatory agents” (2014)

target: T1, Prostaglandin E synthase (Homo sapiens, UniProt O14684); test: Enzyme Assay: The aim of this assay is to determine the affinity of a test compound for the mPGES-1 enzyme. 47 ul of recombinant human mPGES-1 (0.5 ug protein/well) containing microsomal suspension in a buffer containing GSH, (2.5 mmol/L L-Glutathione reduced, dissolved in 0.1 mol/L Phosphat Buffer pH 7.4) is dispensed in a 384-well plate and thereafter 1 ul of the test compound(s) is/are added and incubated for 25 minutes at room temperature. The enzyme reaction is started by the addition of 2 ul PGH2 (final conc. 2 uM) dissolved in water-free Diglyme. After 60 seconds the reaction is terminated by addition of a stop solution containing FeCl2 (10 uL 0.074 mol/l FeCl2). The samples are diluted between 1:25 in PBS (Phosphate Buffered Saline). 10 ul of the diluted samples are transferred to 384-well low volume plate.
T1 sequence (O14684 whole entry): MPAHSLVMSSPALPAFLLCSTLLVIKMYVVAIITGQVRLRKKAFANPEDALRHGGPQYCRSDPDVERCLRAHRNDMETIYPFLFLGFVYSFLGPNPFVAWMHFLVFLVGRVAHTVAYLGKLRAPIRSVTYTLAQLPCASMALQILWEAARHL

Row | Compound | IC50 [nM]
1 | Cn1c(Nc2c(Cl)ccc(CNC(=O)C(C)(C)C)c2Cl)nc2cc(C(=O)Nc3cccc(C#N)c3)c(OCC(F)F)cc21 | 3
2 | CC(C)(C)C(=O)NCc1ccc(Cl)c(Nc2nc3c(F)c(OCC(F)(F)F)c(C(=O)N[C@H]4CC[C@H](C(F)(F)F)CC4)cc3[nH]2)c1Cl | 2
3 | CC(C)(C)C(=O)NCc1ccc(Cl)c(Nc2nc3cc(OC(F)F)c(C(=O)N[C@H]4CC[C@H](C(F)(F)F)CC4)cc3[nH]2)c1Cl | 2
4 | Cn1c(Nc2c(Cl)ccc(CNC(=O)C(C)(C)C)c2Cl)nc2cc(C(=O)Nc3ccc(Br)cc3)c(F)cc21 | 2
